Converted amounts (≈) assume the structure as drawn. Where two headings read alike, the source gives them in different places.
Legend:
[1] = system: M. Tuberculosis strain (H37RV); settings: Janssen WO2004/011436; cited from earlier work
[2] = system: clinical isolates generally susceptible to common tubercular agents; test: microbe, parasite or virus in culture; format: cell-based, Mycobacterium tuberculosis; settings: for MIC M. tuberculosis Sensitive (n = 20): clinical isolates, n = 20 strains tested
M. fortuitum = test: In vitro agar dilution assay (MIC); format: cell-based, Mycobacterium fortuitum; settings: n = 2 strains tested
[3] = system: M. avium-intracellular Complex; test: In vitro agar dilution assay (MIC); format: cell-based, Mycobacterium avium-intracellular complex; settings: for MIC M. avium-intracellulare Complex (n = 10): n = 10 strains tested
[4] = system: M. Tuberculosis strain (H37RV); test: In vitro agar dilution assay (MIC, NCCLS-M24-T2); format: cell-based, Mycobacterium tuberculosis; settings: for MIC: Mycobacterium tuberculosis, ATCC 27294 / H37Rv, read-out: MIC against M. tuberculosis (H37RV ATCC27294)
M. kansasii = test: In vitro agar dilution assay (MIC); format: cell-based, Mycobacterium kansasii; settings: n = 2 strains tested
[5] = system: M. tuberculosis H37RV ATCC 27294; test: In vitro growth inhibition assay, BACTEC 460 TB system; format: cell-based, Mycobacterium tuberculosis
[6] = agar dilution, Middlebrook 7H10

`COc1nc2ccc(Br)cc2cc1C(c1ccccc1)n1cccn1` (racemic) showed a melting point of 142 to 144 °C.

With `COc1nc2ccc(Br)cc2cc1C(Nc1ccc2oc(=O)ccc2c1)c1ccccc1` (racemic) the melting point was 88 to 89 °C.

For `COc1nc2ccc(Br)cc2cc1C(c1ccccc1)[C@@](O)(CCN(C)C)c1cccc2ccccc12` (stereo partly drawn) [Example R207910], the “MIC value against the M. Tuberculosis strain (H37RV)” value [1] is given as 0.07 µg/mL (≈ 0.126 µM).

With `CC(c1cc(F)ccc1Oc1nc2ccc(-n3cc(-c4ccccc4)nn3)cc2cc1Cc1ccccc1)n1ccnc1` (stereo not drawn) the melting point was 118 to 120 °C.

For `NNC(=O)c1ccncc1` [Isoniazid, reference compound], the MIC ([2]; Mycobacterium tuberculosis, read-out: MIC M. tuberculosis Sensitive (n = 20)) was 0.25 µg/mL (≈ 1.82 µM), the MIC (M. fortuitum; Mycolicibacterium fortuitum, read-out: MIC M. fortuitum (n = 2)) was greater than 16 µg/mL and the MIC ([3]; Mycobacterium, read-out: MIC M. avium-intracellulare Complex (n = 10)) was greater than 16 µg/mL. For the same molecule, the MIC [4, 6] was 0.25 µg/mL (≈ 1.82 µM) and the MIC (M. kansasii; Mycobacterium kansasii, read-out: MIC M. kansasii (n = 2)) was greater than 16 µg/mL.

`COc1nc2ccc(Br)cc2cc1C(c1ccccc1)n1ccnc1` (racemic) showed a melting point of 161 to 162 °C.

With `CC(O)c1cc(F)ccc1Oc1nc2ccc(NC(=O)Nc3cccc([N+](=O)[O-])c3)cc2cc1Cc1ccccc1` (stereo not drawn) the melting point was 217 to 219 °C.

In the case of `CO[C@H]1/C=C/O[C@@]2(C)Oc3c(C)c(O)c4c(O)c(c(/C=N/N5CCN(C)CC5)c(O)c4c3C2=O)NC(=O)/C(C)=C\C=C\[C@H](C)[C@H](O)[C@@H](C)[C@@H](O)[C@@H](C)[C@H](OC(C)=O)[C@@H]1C` [Refampin, Rifampicin, reference compound], the MIC [4] is reported as 0.25 µg/mL (≈ 0.304 µM).

With `COC(=O)C(C(=O)N1CCOCC1)C(c1ccccc1)c1cc2cc(Br)ccc2nc1OC` (stereo not drawn) [Example 1] [listing 1 of 2 here] the melting point was 187.5 to 189.5 °C.

For `CC(c1cc(F)ccc1Oc1nc2ccc(-n3cc(-c4ccccc4)nn3)cc2cc1Cc1ccccc1)n1ccnc1` (stereo not drawn) [Example 23], the “MIC M. tuberculosis Sensitive (n = 20)” value [2] was less than 3.125 µg/mL, the “MIC M. fortuitum (n = 2)” value (M. fortuitum) was less than 4.0 µg/mL and the “MIC M. avium-intracellulare Complex (n = 10)” value [3] was less than 4.0 µg/mL. For the same molecule, the “MIC against M. tuberculosis (H37RV ATCC27294)” value (from here on “MIC against M. tuberculosis”) [4, 6] was less than 3.125 µg/mL, the “MIC M. kansasii (n = 2)” value (M. kansasii) was less than 4.0 µg/mL and the “mark “a” at the serial number (99% inhibition at <4 μg/ml), Tables 2-4” value [5] was 23a (Compounds marked with “a” have shown 99% inhibition at <4 μg/ml).

Work on `COc1nc2ccc(Br)cc2c2c1C(C)(OCC(O)Cn1ccc(-c3ccc(C(F)(F)F)cc3)n1)c1ccccc1-2` (stereo not drawn) yielded a melting point of 65 to 67 °C.

In the case of `ON=C1c2ccccc2-c2c1c(N1CCN(c3ccccn3)CC1)nc1ccc(Br)cc21` [Example 134], the “MIC M. tuberculosis Sensitive (n = 20)” value [2] is reported as less than 6.25 µg/mL, the “MIC M. fortuitum (n = 2)” value (M. fortuitum) is reported as greater than 8.0 µg/mL and the “MIC M. avium-intracellulare Complex (n = 10)” value [3] is reported as less than 6.25 µg/mL. The “MIC against M. tuberculosis” value [4, 6] was less than 6.25 µg/mL, the “MIC M. kansasii (n = 2)” value (M. kansasii) was greater than 8.0 µg/mL and the “mark “a” at the serial number (99% inhibition at <4 μg/ml), Tables 5A-N, 6-10” value [5] was 134a (Compounds marked with “a” have shown 99% inhibition at <4 μg/ml).

With `COC(=O)C(C(=O)N1CCOCC1)C(c1ccccc1)c1cc2cc(Br)ccc2nc1OC` (stereo not drawn) [Example 1] [listing 2 of 2 here] the melting point was 206 to 208 °C.

In the case of `CC(O)c1cc(F)ccc1Oc1nc2ccc(NC(=O)Nc3cccc([N+](=O)[O-])c3)cc2cc1Cc1ccccc1` (stereo not drawn) [Example 31], the “MIC M. tuberculosis Sensitive (n = 20)” value [2] is reported as less than 6.25 µg/mL, the “MIC M. fortuitum (n = 2)” value (M. fortuitum) is reported as greater than 8.0 µg/mL and the “MIC M. avium-intracellulare Complex (n = 10)” value [3] is reported as greater than 8.0 µg/mL. The “MIC against M. tuberculosis” value [4, 6] was less than 3.125 µg/mL, the “MIC M. kansasii (n = 2)” value (M. kansasii) was greater than 8.0 µg/mL and the “mark “a” at the serial number (99% inhibition at <4 μg/ml), Tables 2-4” value [5] was 31a (Compounds marked with “a” have shown 99% inhibition at <4 μg/ml).

In the case of `COc1cccc(NC(=O)Nc2ccc3nc(Oc4ccc(F)cc4C(C)O)c(Cc4ccccc4)cc3c2)c1` (stereo not drawn) [Example 26], the “MIC M. tuberculosis Sensitive (n = 20)” value [2] is reported as less than 3.125 µg/mL, the “MIC M. fortuitum (n = 2)” value (M. fortuitum) is reported as less than 4.0 µg/mL and the “MIC M. avium-intracellulare Complex (n = 10)” value [3] is reported as less than 4.0 µg/mL. The “MIC against M. tuberculosis” value [4, 6] was less than 3.125 µg/mL, the “MIC M. kansasii (n = 2)” value (M. kansasii) was less than 4.0 µg/mL and the “mark “a” at the serial number (99% inhibition at <4 μg/ml), Tables 2-4” value [5] was 26a (Compounds marked with “a” have shown 99% inhibition at <4 μg/ml).

From patent US20110059948A1, “QUINOLINE, NAPHTHALENE AND CONFORMATIONALLY CONSTRAINED QUINOLINE OR NAPHTHALENE DERIVATIVES AS ANTI-MYCOBACTERIAL AGENTS” (priority 2008, published 2011)
